Assays:
[1] = biological target: T1, Phospho-EGFR (Tyr1068) in H1975 cells (Homo sapiens, UniProt P00533, L858R/T790M); experiment: HTRF pEGFR/total EGFR assay in H1975 cells; format: cell-based; conditions: compound 3 hours, ratio pEGFR/total EGFR
T1 construct: host or cells: H1975
How it was run: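 H1975 cells (EGFR L858R/T790M) adhered 24 h, then compound-treated for 3 h in duplicate, 0.1% DMSO final. Lysates read by HTRF at 665/620 nm for phospho-Tyr1068 and total EGFR. Value is pEGFR/total EGFR ratio as % of 0 uM control.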

[2] = biological target: T2, Phospho-EGFR (Tyr1068) in H1975 C797S cells (Homo sapiens, UniProt P00533, C797S/L858R/T790M); experiment: HTRF pEGFR/total EGFR assay in H1975 C797S cells; format: cell-based; conditions: H1975 C797S cells (CRISPR), compound 3 hours, ratio pEGFR/total EGFR
T2 construct: endogenous in cells; host or cells: H1975 C797S (CRISPR-edited in house from ATCC CRL-5908)
T2 sequence (P00533 25-1210 T790M/C797S/L858R): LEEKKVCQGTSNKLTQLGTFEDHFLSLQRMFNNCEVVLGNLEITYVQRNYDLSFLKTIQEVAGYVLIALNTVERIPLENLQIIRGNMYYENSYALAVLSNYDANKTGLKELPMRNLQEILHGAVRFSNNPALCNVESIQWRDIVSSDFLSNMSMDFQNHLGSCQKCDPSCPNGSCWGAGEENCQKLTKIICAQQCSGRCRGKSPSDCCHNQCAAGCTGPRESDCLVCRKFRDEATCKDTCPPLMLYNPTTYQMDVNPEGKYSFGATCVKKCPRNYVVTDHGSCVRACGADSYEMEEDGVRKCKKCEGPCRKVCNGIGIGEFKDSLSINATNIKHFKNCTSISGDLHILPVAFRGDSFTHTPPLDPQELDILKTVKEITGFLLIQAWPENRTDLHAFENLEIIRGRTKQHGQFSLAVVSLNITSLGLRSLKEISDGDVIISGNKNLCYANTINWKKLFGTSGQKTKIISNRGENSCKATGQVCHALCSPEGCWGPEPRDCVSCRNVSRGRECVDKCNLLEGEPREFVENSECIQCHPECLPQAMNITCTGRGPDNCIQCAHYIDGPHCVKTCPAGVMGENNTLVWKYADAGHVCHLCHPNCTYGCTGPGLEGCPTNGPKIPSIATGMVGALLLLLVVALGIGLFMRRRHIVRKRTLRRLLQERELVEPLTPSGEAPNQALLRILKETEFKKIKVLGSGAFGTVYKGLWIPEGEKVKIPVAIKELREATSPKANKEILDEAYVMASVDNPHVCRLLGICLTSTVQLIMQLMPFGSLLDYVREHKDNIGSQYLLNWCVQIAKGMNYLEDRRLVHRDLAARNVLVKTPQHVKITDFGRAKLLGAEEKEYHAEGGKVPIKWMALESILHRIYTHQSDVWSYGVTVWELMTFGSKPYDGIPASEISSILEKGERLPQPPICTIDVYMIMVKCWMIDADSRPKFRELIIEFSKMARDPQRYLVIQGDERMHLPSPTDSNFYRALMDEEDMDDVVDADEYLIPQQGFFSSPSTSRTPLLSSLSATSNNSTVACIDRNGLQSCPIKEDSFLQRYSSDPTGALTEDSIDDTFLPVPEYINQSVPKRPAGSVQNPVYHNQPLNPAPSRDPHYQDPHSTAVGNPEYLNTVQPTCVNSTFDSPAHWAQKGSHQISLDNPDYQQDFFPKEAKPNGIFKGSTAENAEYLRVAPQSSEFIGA
How it was run: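 H1975 cells carrying CRISPR-engineered EGFR C797S (with L858R/T790M) were exposed to compounds for 3 h at 0.1% DMSO, in duplicate. Lysates were read with HTRF kits for pEGFR Tyr1068 and total EGFR at 665/620 nm. Values are the pEGFR/total EGFR ratio as percent of the 0 uM control.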

[3] = biological target: CtermHisTag-mEGFR Wild type (Homo sapiens, UniProt P00533); experiment: TR-FRET probe displacement assay, EGFR wild type; format: binding; conditions: EGFR wild type 1.25 nM, probe 100 nM, 30 mins room temperature
Chain of CtermHisTag-mEGFR Wild type (P00533 25-1210): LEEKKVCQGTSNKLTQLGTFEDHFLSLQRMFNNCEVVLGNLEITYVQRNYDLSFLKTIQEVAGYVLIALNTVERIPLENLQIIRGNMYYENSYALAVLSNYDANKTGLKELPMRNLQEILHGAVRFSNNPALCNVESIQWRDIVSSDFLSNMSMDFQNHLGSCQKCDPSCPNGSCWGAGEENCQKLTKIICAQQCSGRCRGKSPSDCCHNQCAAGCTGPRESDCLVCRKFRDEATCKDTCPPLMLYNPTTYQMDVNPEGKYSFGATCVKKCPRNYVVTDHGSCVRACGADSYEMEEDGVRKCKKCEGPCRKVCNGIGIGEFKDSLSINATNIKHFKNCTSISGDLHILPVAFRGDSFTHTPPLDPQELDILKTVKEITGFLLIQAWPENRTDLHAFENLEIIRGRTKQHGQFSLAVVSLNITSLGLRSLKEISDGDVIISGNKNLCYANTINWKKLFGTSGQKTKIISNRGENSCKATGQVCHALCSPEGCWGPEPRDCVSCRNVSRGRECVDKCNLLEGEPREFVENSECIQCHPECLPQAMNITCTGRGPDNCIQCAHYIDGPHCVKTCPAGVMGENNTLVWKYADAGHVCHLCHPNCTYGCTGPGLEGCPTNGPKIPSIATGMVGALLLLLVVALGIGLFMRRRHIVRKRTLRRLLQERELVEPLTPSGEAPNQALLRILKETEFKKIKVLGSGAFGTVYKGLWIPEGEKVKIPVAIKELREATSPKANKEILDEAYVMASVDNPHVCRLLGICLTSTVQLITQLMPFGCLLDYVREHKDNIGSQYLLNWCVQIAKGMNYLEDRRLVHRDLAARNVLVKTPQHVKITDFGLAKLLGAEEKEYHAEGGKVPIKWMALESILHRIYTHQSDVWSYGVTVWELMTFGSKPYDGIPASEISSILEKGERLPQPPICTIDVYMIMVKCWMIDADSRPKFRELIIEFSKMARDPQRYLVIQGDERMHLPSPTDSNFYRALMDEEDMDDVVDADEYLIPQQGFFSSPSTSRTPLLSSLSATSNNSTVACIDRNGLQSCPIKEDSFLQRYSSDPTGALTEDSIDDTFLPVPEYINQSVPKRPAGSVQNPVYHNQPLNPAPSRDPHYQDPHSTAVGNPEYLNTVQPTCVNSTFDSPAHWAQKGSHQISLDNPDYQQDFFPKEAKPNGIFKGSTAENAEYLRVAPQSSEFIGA
How it was run: (§1)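 Ten-point compound series, 100000 to 3 nM final, tested against His-tagged EGFR (wild type or C797S/L858R/T790M) for probe displacement. TR-FRET read at Ex337 nm, Em490/520 nm; run in technical replicate, biological duplicate.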

[4] = biological target: CtermHisTag-mEGFR Triple Mutant - C797S, L858R, T790M (Homo sapiens, UniProt P00533, C797S/L858R/T790M); experiment: TR-FRET probe displacement assay, EGFR triple mutant; format: binding; conditions: T790M 1.25 nM, probe 100 nM, 30 mins room temperature
Chain of CtermHisTag-mEGFR Triple Mutant - C797S, L858R, T790M (P00533 25-1210 T790M/C797S/L858R): as the sequence (P00533 25-1210 T790M/C797S/L858R) above
How it was run: as §1

[5] = biological target: T3, Phospho-EGFR (Tyr1068) in A431 cells (Homo sapiens, UniProt P00533); experiment: HTRF pEGFR/total EGFR assay in A431 cells (EGF stimulated); format: cell-based; conditions: compound 2.5 hours then 100 ng/ml EGF 30 mins, ratio pEGFR/total EGFR
T3 construct: endogenous in cells; host or cells: A431
T3 sequence (P00533 25-1210): as the sequence (P00533 25-1210) above
How it was run: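 A431 cells pretreated with compounds 2.5 h (0.1% DMSO), then stimulated with 100 ng/ml EGF for 30 min. Lysates assayed by HTRF for phospho-EGFR (Tyr1068) and total EGFR, read at 665/620 nm. Values are pEGFR/total EGFR ratio as percentage of 0uM control.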

Row | IC50 [1] [µM] | IC50 [2] [µM] | IC50 [3] [µM] | IC50 [4] [µM] | IC50 [5] [µM] | Compound
1 | < 0.5 | 0.5 to 1 | 1 to 10 | < 0.02 | > 3 | C#Cc1cc(N2C(=O)OCC2COC)nc2nc(Nc3ccc(N4CCN(C)CC4)cc3)ncc12 (stereo not drawn) [Example 116, 3-(5-Ethynyl-2-{[4-(4-methylpiperazin-1-yl)phenyl]amino}pyrido[2,3-d]pyrimidin-7-yl)-4-(methoxymethyl)-1,3-oxazolidin-2-one]
2 | > 3 | > 3 | 1 to 10 | 0.1 to 1 | > 3 | C#Cc1cc(NC(=O)NC2CCCC2)nc2nc(Nc3cccc4c3CN(C)C4)ncc12 [Example 117, 3-Cyclopentyl-1-{5-ethynyl-2-[(2-methyl-1,3-dihydroisoindol-4-yl)amino]pyrido[2,3-d]pyrimidin-7-yl}urea]
3 | > 3 | > 3 | > 10 | 1 to 50 | > 3 | C#Cc1cc(NC(=O)NC2CCCC2)nc2nc(Nc3ccccc3N3CCCC(CS(C)(=O)=O)C3)ncc12 (stereo not drawn) [Example 118, 3-Cyclopentyl-1-[5-ethynyl-2-({2-[3-(methanesulfonylmethyl)piperidin-1-yl]phenyl}amino)pyrido[2,3-d]pyrimidin-7-yl]urea]
4 | < 0.5 | < 0.5 | < 1 | < 0.02 | 1 to 3 | C#Cc1cc(NC(=O)NC2CCCC2)nc2nc(Nc3cccc(N(C)[C@H]4C[C@H](CS(C)(=O)=O)C4)c3)ncc12 [Example 122]
5 | > 3 | > 3 | > 10 | 1 to 50 | > 3 | C#Cc1cc(N(C)C(=O)N(C)C2CCCC2)nc2nc(Nc3ccc(N4CCN(C)CC4)cc3)ncc12 [Example 123, 3-Cyclopentyl-1-(5-ethynyl-2-{[4-(4-methylpiperazin-1-yl)phenyl]amino}pyrido[2,3-d]pyrimidin-7-yl)-1,3-dimethylurea]
6 | 0.5 to 1 | < 0.5 | < 1 | 0.02 to 0.1 | > 3 | C#Cc1cc(N2C(=O)NCC2C2CCCC2)nc2nc(Nc3ccc(N4CCN(C)CC4)cc3)ncc12 (stereo not drawn) [Example 124, 5-Cyclopentyl-1-(5-ethynyl-2-{[4-(4-methylpiperazin-1-yl)phenyl]amino}pyrido[2,3-d]pyrimidin-7-yl)imidazolidin-2-one]

— patent publication US20260176265A1 (Cancer Research Technology Limited, priority 2022, published 2026)
